The source made the active and inactive calls. The calls are words filed in the database; no cut-off is given here.
What follows are compounds tested on Toxoplasma gondii (assay: Anti-tachyzoite activity against Toxoplasma gondii RH infected in human HFF cells assessed as mortality rate at 50 uM incubated for 2 hrs by trypan blue staining based light microscopic analysis). Conditions: not given.
Type: functional, organism-based

Row | Compound | Activity
1 | CCNc1ccc(C(=O)/C=C/c2cccc(OC)c2OC)cc1 | Active
2 | CC(C)Nc1ccc(C(=O)/C=C/c2ccccc2Br)cc1 | Active
3 | COc1ccc(C(=O)/C=C/c2ccc(O)cc2)cc1OC | Active
4 | CC(C)Nc1ccc(C(=O)/C=C/c2ccc(Cl)c(Cl)c2)cc1 | Active
5 | COc1cccc(/C=C/C(=O)c2ccc(NC(C)C)cc2)c1OC | Active
6 | O=C(/C=C/c1ccc(Cl)c(Cl)c1)c1cc(F)cc(F)c1 | Active
7 | Nc1ccc(C(=O)CCc2ccccc2Br)cc1 | Active
8 | Nc1ccc(C(=O)CCc2ccc(Cl)c(Cl)c2)cc1 | Active
9 | CC(=O)Nc1ccc(C(=O)/C=C/c2ccc(Cl)c(Cl)c2)cc1 | Active
10 | CCNc1cccc(C(=O)/C=C/c2cccc(OC)c2OC)c1 | Active
11 | CC(=O)Nc1ccc(C(=O)/C=C/c2ccccc2Br)cc1 | Active
12 | COc1cccc(/C=C/C(=O)c2ccc(NC(C)=O)cc2)c1OC | Active
13 | COc1cccc(CCC(=O)c2cccc(N)c2)c1OC | Active
14 | COc1cccc(/C=C/C(=O)c2cccc(NC(C)=O)c2)c1OC | Active
15 | COc1ccc(C(=O)/C=C/c2ccc(O)cc2)cc1 | Active
16 | COc1ccc(C(=O)/C=C/c2ccccc2Cl)cc1 | Active
17 | CCNc1ccc(C(=O)/C=C/c2ccc(Cl)c(Cl)c2)cc1 | Active
18 | COc1ccc(C(=O)/C=C/c2ccccc2Cl)cc1O | Active
19 | CCNc1ccc(C(=O)/C=C/c2ccccc2Br)cc1 | Active
20 | COc1cccc(/C=C/C(=O)c2cccc(NC(C)C)c2)c1OC | Active
21 | O=C(/C=C/c1ccccc1Cl)c1cc(F)cc(F)c1 | Active
22 | O=C(/C=C/c1ccccc1Br)c1cc(F)cc(F)c1 | Active
23 | COc1cccc(CCC(=O)c2ccc(N)cc2)c1OC | Active
24 | COc1ccc(C(=O)/C=C/c2ccccc2OC)cc1O | Active

Each compound was assayed on Toxoplasma gondii (assay: Anti-tachyzoite activity against Toxoplasma gondii RH infected in kunming mouse model assessed as decrease in serum ALT level at 100 mg/kg, ip administered daily for 4 days after 4 hrs post infection). Conditions: time 4.0 day.
Type: functional, organism-based

Row | Compound | Activity
25 | CO[C@@H]1[C@@H](O[C@@H]2O[C@H](C)[C@@H](O[C@H]3C[C@@](C)(O)[C@@H](O)[C@H](C)O3)[C@H](N(C)C)[C@H]2O)[C@@H](CC=O)C[C@@H](C)[C@@H](O[C@H]2CC[C@H](N(C)C)[C@@H](C)O2)/C=C/C=C/C[C@@H](C)OC(=O)C[C@H]1OC(C)=O | Active

Each compound was assayed on Toxoplasma gondii (assay: Anti-tachyzoite activity against Toxoplasma gondii RH infected in kunming mouse model assessed as decrease in serum AST level at 100 mg/kg, ip administered daily for 4 days after 4 hrs post infection). Conditions: time 4.0 day.
Type: functional, organism-based

Row | Compound | Activity
26 | CO[C@@H]1[C@@H](O[C@@H]2O[C@H](C)[C@@H](O[C@H]3C[C@@](C)(O)[C@@H](O)[C@H](C)O3)[C@H](N(C)C)[C@H]2O)[C@@H](CC=O)C[C@@H](C)[C@@H](O[C@H]2CC[C@H](N(C)C)[C@@H](C)O2)/C=C/C=C/C[C@@H](C)OC(=O)C[C@H]1OC(C)=O | Active

Each compound was assayed on Toxoplasma gondii (assay: Anti-tachyzoite activity against Toxoplasma gondii RH infected in Kunming mouse model assessed as inhibition of growth rate in peritoneal fluid at 100 mg/kg, ip administered daily for 4 days after 4 hrs post infection). Conditions: time 4 day.
Type: functional
Set-up: scale not given: the % may be the effect or the level left

Row | Compound | Activity
27 | CO[C@@H]1[C@@H](O[C@@H]2O[C@H](C)[C@@H](O[C@H]3C[C@@](C)(O)[C@@H](O)[C@H](C)O3)[C@H](N(C)C)[C@H]2O)[C@@H](CC=O)C[C@@H](C)[C@@H](O[C@H]2CC[C@H](N(C)C)[C@@H](C)O2)/C=C/C=C/C[C@@H](C)OC(=O)C[C@H]1OC(C)=O | 74.6%

What follows are compounds tested on Toxoplasma gondii (assay: Anti-tachyzoite activity against Toxoplasma gondii RH infected in kunming mouse model assessed as decrease in malondialdehyde lipid peroxidation in liver at 100 mg/kg, ip administered daily for 4 days after 4 hrs post infection). Conditions: time 4.0 day.
Type: functional, organism-based

Row | Compound | Activity
28 | CO[C@@H]1[C@@H](O[C@@H]2O[C@H](C)[C@@H](O[C@H]3C[C@@](C)(O)[C@@H](O)[C@H](C)O3)[C@H](N(C)C)[C@H]2O)[C@@H](CC=O)C[C@@H](C)[C@@H](O[C@H]2CC[C@H](N(C)C)[C@@H](C)O2)/C=C/C=C/C[C@@H](C)OC(=O)C[C@H]1OC(C)=O | Active

Source: ChEMBL document CHEMBL5131501, “Discovery and evaluation of chalcone derivatives as novel potential anti-Toxoplasma gondii agents” (Eur J Med Chem, 2022)
